Where two headings read alike, the source gives them in different places.
Columns and labels:
[1] = tested on: Enterococcus faecalis (OG1RF); experiment: microbe, parasite or virus in culture; format: cell-based
[2] = tested on: Pseudomonas aeruginosa (PAO1); experiment: microbe, parasite or virus in culture; format: cell-based
red blood cell (RBC) [3] = tested on: red blood cell (RBC)
[4] = tested on: A. baumannii pan-resistant clinical isolate, MRSN 17493; format: cell-based, Acinetobacter baumannii
[5] = tested on: methicillin-susceptible S. aureus (SH1000); experiment: microbe, parasite or virus in culture; format: cell-based
[6] = tested on: hospital-acquired methicillin-resistant S. aureus (HA-MRSA; ATCC 33591); experiment: microbe, parasite or virus in culture; format: cell-based
[7] = tested on: A. baumannii strain ATCC 19606; format: cell-based, Acinetobacter baumannii
[8] = tested on: Escherichia coli (MC4100); experiment: microbe, parasite or virus in culture; format: cell-based
[9] = tested on: community-acquired methicillin-resistant S. aureus (CA-MRSA; USA 300-0114); experiment: microbe, parasite or virus in culture; format: cell-based
red blood cell (RBC) [10] = experiment: Red blood cell (RBC) lysis (Lysis20); conditions: RBC lysis as proxy for toxicity
[11] = SH1000, […] DMSO carrier at highest test concentration (250 μM)

Compound	Lys20 (red blood cell (RBC) [3]) [µM]	MBEC [4] [µM]	MBEC [7] [µM]	Minimum Inhibitory Concentration E. faecalis [1] [µM]	Minimum Inhibitory Concentration Pa [2] [µM]	Minimum Inhibitory Concentration MSSA [5] [µM]	Minimum Inhibitory Concentration HA-MRSA [6] [µM]	Minimum Inhibitory Concentration E. coli [8] [µM]	Minimum Inhibitory Concentration CA-MRSA [9] [µM]	other results
CCCCCCCCCCC[n+]1ccc(CCCc2cc[n+](CCCCCCCCCCC)cc2)cc1 [2Pyr-11,11, reference compound]	4	500	1000							MIC ([1]; Enterococcus faecalis, read-out: Minimum Inhibitory Concentration E. faecalis): 8 µM; MIC ([2]; Pseudomonas aeruginosa, PAO1, read-out: Minimum Inhibitory Concentration Pa): 16 µM; MIC ([5]; Staphylococcus aureus, MSSA, read-out: Minimum Inhibitory Concentration MSSA): 1 µM; MIC ([6]; Staphylococcus aureus, read-out: Minimum Inhibitory Concentration HA-MRSA): 2 µM; MIC ([8]; Escherichia coli, read-out: Minimum Inhibitory Concentration E. coli): 2 µM; MIC ([9]; Staphylococcus aureus, read-out: Minimum Inhibitory Concentration CA-MRSA): 2 µM
CCCCCCCCCC[N+](C)(C)CCCCCCCCCC.[Cl-] [DDAC]		500	1000							
CCCCCCCCCCCCCC[P+](CC[P+](CCCCCCCCCCCCCC)(c1ccccc1)c1ccccc1)(CC[P+](CCCCCCCCCCCCCC)(c1ccccc1)c1ccccc1)c1ccccc1 [P2P2P-14,14,14, ((phenyl(tetradecyl)phosphoniodiyl)bis(ethane-2,1-diyl))bis(diphenyl(tetradecyl)phosphonium)]										Minimum Inhibitory Concentration E. faecalis ([1]; OG1RF): 250 µM; Minimum Inhibitory Concentration Pa ([2]; P. aeruginosa PAO1): >250 µM; Minimum Inhibitory Concentration MSSA [5, 11]: 16 µM; Lys20 (red blood cell (RBC) [10]): 1 µM; Minimum Inhibitory Concentration HA-MRSA ([6]; ATCC 33591): 32 µM; Minimum Inhibitory Concentration E. coli ([8]; MC4100): 250 µM; Minimum Inhibitory Concentration CA-MRSA ([9]; USA 300-0114): 16 µM
CCCCCCCCCCCCCC[P+](c1ccccc1)(c1ccccc1)c1ccccc1 [TPP-14, triphenyl(tetradecyl)phosphonium]	4			8	16	2	2	16	2	
CCCCCCCCCCCCCCCC[P+](c1ccccc1)(c1ccccc1)c1ccccc1 [TPP-16, hexadecyltriphenylphosphonium]	4			4	16	2	4	16	2	fold increase in activity compared to BAC and CPC [1]: ~63 fold; fold increase in activity compared to BAC and CPC [2]: ~16 fold
benzalkonium chloride [BAC, reference compound]	16	2000	2000	250	250	4	8	63	4	
octadecyltriphenylphosphonium [TPP-18]										Minimum Inhibitory Concentration E. faecalis ([1]; OG1RF): 16 µM; Minimum Inhibitory Concentration Pa ([2]; P. aeruginosa PAO1): 125 µM; Minimum Inhibitory Concentration MSSA [5, 11]: 4 µM; Lys20 (red blood cell (RBC) [10]): 4 µM; Minimum Inhibitory Concentration HA-MRSA ([6]; ATCC 33591): 8 µM; Minimum Inhibitory Concentration E. coli ([8]; MC4100): 125 µM; Minimum Inhibitory Concentration CA-MRSA ([9]; USA 300-0114): 8 µM

Source: patent US20250034184A1, “QUATERNARY PHOSPHONIUM COMPOUNDS AND USES THEREOF” (Emory University, priority 2021, published 2025)
